Calls of active or inactive are those of the source. No cut-off for these calls is given here.
Experiments:
[1] = target: Oxysterols receptor LXR-beta (Homo sapiens, UniProt P55055); test: Inhibition of Gal-DBD and NHRLBD fused LXRbeta (unknown origin) transfected in African green monkey CV-1 cells by luciferase assay; type: cell-based
[2] = target: Thyroid hormone receptor beta (Homo sapiens, UniProt P10828); test: Activation of pGAL4 fused THRbeta LBD (unknown origin) transfected in HEK293 cells cotransfected with pG5-Luc and pRL-TK incubated for 24 hrs by Renilla/Firefly based dual-glo luciferase assay; type: cell-based
Sequence of Thyroid hormone receptor beta (P10828 whole entry, the tested form may be a part): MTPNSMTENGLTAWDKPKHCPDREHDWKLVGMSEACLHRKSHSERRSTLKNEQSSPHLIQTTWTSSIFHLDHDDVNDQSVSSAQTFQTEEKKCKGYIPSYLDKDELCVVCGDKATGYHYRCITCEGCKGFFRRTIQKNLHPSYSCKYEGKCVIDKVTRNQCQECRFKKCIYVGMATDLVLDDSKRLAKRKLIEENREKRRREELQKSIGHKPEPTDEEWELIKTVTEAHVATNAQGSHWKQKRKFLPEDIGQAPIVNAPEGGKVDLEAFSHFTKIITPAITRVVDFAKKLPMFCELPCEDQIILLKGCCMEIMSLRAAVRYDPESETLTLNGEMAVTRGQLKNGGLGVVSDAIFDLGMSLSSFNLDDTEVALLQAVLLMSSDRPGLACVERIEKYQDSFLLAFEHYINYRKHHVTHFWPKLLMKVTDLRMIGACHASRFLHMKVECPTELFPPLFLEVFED

Bile acid receptor [3] = target: T1, Bile acid receptor (Homo sapiens, UniProt Q96RI1); test: Agonist activity at FXR-LBD (unknown origin) using fluorescein-coactivator peptide incubated for 3 hrs by TR-FRET assay
T1 sequence (Q96RI1 whole entry): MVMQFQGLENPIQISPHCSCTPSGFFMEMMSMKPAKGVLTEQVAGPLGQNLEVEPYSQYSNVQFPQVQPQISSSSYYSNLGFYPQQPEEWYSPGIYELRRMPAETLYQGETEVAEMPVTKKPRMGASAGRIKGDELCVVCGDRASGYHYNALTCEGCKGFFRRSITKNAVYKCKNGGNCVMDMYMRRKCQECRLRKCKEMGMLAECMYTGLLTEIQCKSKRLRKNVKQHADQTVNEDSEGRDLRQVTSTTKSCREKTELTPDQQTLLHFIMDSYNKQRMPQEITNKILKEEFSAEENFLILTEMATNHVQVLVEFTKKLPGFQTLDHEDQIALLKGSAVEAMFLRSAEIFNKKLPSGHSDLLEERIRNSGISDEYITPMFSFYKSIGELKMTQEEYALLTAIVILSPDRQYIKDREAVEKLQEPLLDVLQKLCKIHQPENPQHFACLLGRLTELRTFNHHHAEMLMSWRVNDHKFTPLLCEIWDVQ

[4] = target: Oxysterols receptor LXR-alpha (Homo sapiens, UniProt Q13133); test: Inhibition of Gal-DBD and NHRLBD fused LXRalpha (unknown origin) transfected in African green monkey CV-1 cells by luciferase assay; type: cell-based
Sequence of Oxysterols receptor LXR-alpha (Q13133 whole entry, the tested form may be a part): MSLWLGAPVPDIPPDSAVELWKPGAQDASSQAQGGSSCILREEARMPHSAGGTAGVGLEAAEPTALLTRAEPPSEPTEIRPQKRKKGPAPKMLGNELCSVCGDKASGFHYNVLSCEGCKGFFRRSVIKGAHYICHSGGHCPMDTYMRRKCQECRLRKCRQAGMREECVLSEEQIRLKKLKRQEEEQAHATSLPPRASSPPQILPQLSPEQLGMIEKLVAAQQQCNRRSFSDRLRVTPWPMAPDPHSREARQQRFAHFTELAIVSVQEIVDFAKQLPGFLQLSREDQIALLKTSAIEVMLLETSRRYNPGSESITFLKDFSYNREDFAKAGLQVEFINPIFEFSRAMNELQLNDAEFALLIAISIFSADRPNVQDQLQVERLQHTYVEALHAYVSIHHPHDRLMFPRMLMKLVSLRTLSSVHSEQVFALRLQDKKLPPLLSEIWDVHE

[5] = target: T2, Peroxisome proliferator-activated receptor alpha (Homo sapiens, UniProt Q07869); test: Inhibition of pBIND-PPARalpha (unknown origin) transfected in HepG2 cells incubated for 18 hrs in presence of […] by dual luciferase reporter assay; type: cell-based
T2 sequence (Q07869 whole entry): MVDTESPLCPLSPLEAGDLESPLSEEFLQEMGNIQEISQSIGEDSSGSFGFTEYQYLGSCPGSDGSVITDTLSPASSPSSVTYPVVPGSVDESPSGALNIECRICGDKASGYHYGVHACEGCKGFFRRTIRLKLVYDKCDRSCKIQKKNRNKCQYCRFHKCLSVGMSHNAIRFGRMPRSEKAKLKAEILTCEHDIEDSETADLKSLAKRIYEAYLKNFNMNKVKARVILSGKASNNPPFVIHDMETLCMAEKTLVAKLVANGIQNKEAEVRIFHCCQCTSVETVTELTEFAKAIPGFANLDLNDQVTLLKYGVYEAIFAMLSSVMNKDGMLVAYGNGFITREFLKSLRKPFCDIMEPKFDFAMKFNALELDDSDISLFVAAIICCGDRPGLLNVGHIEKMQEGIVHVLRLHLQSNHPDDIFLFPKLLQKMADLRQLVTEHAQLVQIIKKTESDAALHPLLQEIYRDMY

[6] = target: T3, Peroxisome proliferator-activated receptor gamma (Homo sapiens, UniProt P37231); test: Inhibition of PPARgamma (unknown origin) transfected in HEK293 cells incubated for 18 hrs in presence of rosiglitazone by dual luciferase reporter assay; type: cell-based
T3 sequence (P37231 whole entry): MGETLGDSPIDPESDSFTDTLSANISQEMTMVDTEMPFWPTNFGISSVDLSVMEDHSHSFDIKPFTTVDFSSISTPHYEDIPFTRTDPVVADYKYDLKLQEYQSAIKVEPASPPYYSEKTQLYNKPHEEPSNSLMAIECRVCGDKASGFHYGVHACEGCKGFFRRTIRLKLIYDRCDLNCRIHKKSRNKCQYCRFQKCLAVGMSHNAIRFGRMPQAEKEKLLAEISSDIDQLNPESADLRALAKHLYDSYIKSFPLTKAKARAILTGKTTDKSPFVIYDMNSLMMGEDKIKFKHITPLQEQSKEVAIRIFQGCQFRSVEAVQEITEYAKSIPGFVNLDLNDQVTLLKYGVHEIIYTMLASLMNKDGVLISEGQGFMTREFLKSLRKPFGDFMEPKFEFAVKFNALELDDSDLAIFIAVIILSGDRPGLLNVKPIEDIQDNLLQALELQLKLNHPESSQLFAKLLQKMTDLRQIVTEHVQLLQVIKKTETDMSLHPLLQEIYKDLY

[7] = target: T4, Fatty acid-binding protein, liver (Homo sapiens, UniProt P07148); test: Displacement of 8-anilino-1-naphthalene-sulfonic acid from FABP1 (unknown origin) incubated for 3 mins by fluorescence based assay
T4 sequence (P07148 whole entry): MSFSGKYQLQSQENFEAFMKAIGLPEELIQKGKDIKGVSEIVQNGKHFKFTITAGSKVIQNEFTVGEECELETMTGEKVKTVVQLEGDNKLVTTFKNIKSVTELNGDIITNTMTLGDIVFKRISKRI

Bile acid receptor [8] = target: T1, Bile acid receptor; test: Agonist activity at FXR (unknown origin) expressed in human HepG2 cells co-transfected with human RXR assessed as luciferase activity incubated for 24 hrs by cell-based luciferase assay
[9] = target: T5, Fatty acid-binding protein, liver (Homo sapiens) (UniProt P07148); test: Displacement of 8-anilino-1-naphthalene-sulfonic acid from FABP1 (unknown origin) at 10 uM incubated for 3 mins by fluorescence based assay relative to control
T5 sequence (whole entry): T4 sequence (P07148 whole entry)

[10] = Inhibition of PPARbeta/delta (unknown origin) transfected in HepG2 cells incubated for 18 hrs in presence of GW0742 by dual luciferase reporter assay; settings: Homo sapiens, HepG2, 18 h
[11] = target: Mineralocorticoid receptor (Homo sapiens, UniProt P08235); test: Activation of Gal-DBD and NHRLBD fused MR (unknown origin) transfected in African green monkey CV-1 cells by luciferase reporter assay; type: cell-based
Sequence of Mineralocorticoid receptor (P08235 whole entry, the tested form may be a part): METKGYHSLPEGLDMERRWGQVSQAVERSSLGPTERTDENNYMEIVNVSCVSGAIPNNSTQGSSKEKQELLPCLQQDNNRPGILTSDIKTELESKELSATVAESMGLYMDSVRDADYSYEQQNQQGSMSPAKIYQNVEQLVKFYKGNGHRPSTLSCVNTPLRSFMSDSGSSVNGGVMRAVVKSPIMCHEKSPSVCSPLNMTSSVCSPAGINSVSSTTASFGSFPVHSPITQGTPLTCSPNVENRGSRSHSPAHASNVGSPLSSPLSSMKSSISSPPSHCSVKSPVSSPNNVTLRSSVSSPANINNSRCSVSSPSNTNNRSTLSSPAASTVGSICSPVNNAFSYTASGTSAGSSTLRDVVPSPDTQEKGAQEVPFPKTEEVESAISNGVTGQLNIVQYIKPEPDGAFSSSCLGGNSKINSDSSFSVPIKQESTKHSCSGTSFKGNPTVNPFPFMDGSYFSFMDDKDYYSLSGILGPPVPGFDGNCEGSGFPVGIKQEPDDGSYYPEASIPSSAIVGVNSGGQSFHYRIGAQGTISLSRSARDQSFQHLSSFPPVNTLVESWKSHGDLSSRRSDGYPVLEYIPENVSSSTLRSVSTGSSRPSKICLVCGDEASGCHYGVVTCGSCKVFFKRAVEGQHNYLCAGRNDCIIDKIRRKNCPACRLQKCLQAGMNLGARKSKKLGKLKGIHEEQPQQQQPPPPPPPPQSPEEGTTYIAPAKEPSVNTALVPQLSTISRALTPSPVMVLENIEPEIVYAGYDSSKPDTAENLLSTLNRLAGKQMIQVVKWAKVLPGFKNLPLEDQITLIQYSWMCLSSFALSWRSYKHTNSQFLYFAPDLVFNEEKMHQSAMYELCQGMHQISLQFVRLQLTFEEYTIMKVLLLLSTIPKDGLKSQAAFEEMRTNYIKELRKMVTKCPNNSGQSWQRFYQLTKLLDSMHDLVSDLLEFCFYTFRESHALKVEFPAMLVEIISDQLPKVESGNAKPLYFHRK

[12] = Drug concentration in C57BL/6 mouse liver at 20 mg/kg, po administered for 5 days and measured after 1 hr post final dose by LC-MS analysis; type: ADME, organism-based; settings: time 5 day, read-out: Ct
[13] = target: Fatty acid-binding protein, heart (Homo sapiens, UniProt P05413); test: Displacement of 8-anilino-1-naphthalene-sulfonic acid from FABP3 (unknown origin) incubated for 3 mins by fluorescence based assay
Sequence of Fatty acid-binding protein, heart (P05413 whole entry): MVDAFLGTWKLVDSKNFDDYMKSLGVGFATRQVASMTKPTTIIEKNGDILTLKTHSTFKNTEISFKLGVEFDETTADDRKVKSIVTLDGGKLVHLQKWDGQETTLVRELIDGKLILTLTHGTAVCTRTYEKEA

[14] = target: G-protein coupled bile acid receptor 1 (Homo sapiens, UniProt Q8TDU6); test: Activation of TGR5 (unknown origin) transfected in human NCI-H716 cells assessed as increase in cAMP production incubated for 24 hrs by HTR-FRET assay; type: functional, cell-based
Sequence of G-protein coupled bile acid receptor 1 (Q8TDU6 whole entry): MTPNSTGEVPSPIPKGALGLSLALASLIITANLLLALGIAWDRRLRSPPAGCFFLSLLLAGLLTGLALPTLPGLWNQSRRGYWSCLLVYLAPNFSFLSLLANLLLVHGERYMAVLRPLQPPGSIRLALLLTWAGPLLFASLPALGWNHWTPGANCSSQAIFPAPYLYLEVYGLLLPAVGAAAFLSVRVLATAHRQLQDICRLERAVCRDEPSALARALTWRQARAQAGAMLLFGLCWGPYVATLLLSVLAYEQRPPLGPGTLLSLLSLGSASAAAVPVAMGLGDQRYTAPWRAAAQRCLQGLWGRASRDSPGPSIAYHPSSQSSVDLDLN

[15] = Metabolic stability in Beagle dog liver microsomes assessed as parent compound remaining incubated for 1 hr by LC-MS analysis; type: ADME, Canis lupus familiaris, Microsome; settings: read-out: Stability
[16] = Metabolic stability in human liver microsomes assessed as parent compound remaining incubated for 1 hr by LC-MS analysis; type: ADME, Microsome; settings: read-out: Stability
Progesterone receptor = Progesterone receptor (Homo sapiens, UniProt P06401); test: Activation of Gal-DBD and NHRLBD fused PR (unknown origin) transfected in African green monkey CV-1 cells by luciferase reporter assay; type: cell-based
[17] = Metabolic stability in rhesus monkey liver microsomes assessed as parent compound remaining incubated for 1 hr by LC-MS analysis; type: ADME, Macaca mulatta, Microsome; settings: read-out: Stability
[18] = target: Fatty acid-binding protein, adipocyte (Homo sapiens, UniProt P15090); test: Displacement of 8-anilino-1-naphthalene-sulfonic acid from FABP4 (unknown origin) incubated for 3 mins by fluorescence based assay
Sequence of Fatty acid-binding protein, adipocyte (P15090 whole entry, the tested form may be a part): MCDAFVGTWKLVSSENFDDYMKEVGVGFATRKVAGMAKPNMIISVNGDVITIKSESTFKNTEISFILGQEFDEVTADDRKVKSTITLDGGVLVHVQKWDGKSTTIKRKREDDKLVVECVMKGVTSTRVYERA

Androgen receptor = Androgen receptor (Homo sapiens, UniProt P10275); test: Activation of Gal-DBD and NHRLBD fused AR (unknown origin) transfected in African green monkey CV-1 cells by luciferase reporter assay; type: cell-based
Sequence of Androgen receptor (P10275 whole entry, the tested form may be a part): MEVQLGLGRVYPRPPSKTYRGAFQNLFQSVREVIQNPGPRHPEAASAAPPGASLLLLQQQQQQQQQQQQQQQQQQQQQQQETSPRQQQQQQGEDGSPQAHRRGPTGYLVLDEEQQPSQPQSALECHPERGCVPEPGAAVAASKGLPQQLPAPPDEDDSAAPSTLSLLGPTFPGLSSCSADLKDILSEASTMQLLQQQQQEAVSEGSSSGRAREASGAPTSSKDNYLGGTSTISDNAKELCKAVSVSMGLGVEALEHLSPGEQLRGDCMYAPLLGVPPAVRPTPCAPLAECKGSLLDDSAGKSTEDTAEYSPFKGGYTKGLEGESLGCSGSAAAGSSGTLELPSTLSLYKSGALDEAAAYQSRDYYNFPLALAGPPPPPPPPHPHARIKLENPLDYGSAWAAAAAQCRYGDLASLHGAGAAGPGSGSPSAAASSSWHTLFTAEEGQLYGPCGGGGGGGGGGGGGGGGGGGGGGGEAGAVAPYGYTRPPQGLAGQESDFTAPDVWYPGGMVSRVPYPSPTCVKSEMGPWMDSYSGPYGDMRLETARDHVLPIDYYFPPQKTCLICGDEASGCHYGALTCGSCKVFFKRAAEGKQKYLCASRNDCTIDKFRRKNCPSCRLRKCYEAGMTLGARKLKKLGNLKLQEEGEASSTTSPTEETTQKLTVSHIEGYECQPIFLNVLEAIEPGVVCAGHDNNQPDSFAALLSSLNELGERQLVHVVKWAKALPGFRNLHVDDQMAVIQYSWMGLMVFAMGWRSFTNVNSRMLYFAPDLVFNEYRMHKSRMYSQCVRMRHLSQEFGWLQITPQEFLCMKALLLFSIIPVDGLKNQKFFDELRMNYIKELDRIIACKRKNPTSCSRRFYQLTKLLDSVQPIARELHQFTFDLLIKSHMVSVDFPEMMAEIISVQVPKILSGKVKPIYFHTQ

[19] = Drug concentration in C57BL/6 mouse plasma at 20 mg/kg, po administered for 5 days and measured after 1 hr post final dose by LC-MS analysis; type: ADME, organism-based; settings: time 5 day
[20] = Metabolic stability in Sprague-Dawley rat liver microsomes assessed as parent compound remaining incubated for 1 hr by LC-MS analysis; type: ADME, Microsome; settings: read-out: Stability
[21] = Drug concentration in C57BL/6 mouse ileum at 20 mg/kg, po administered for 5 days and measured after 1 hr post final dose by LC-MS analysis; type: ADME, organism-based; settings: time 5 day, read-out: Ct
[22] = target: Retinoic acid receptor gamma (Homo sapiens, UniProt P13631); test: Activation of Gal-DBD and NHRLBD fused RARgamma (unknown origin) transfected in African green monkey CV-1 cells by luciferase reporter assay; type: cell-based
Sequence of Retinoic acid receptor gamma (P13631 whole entry, the tested form may be a part): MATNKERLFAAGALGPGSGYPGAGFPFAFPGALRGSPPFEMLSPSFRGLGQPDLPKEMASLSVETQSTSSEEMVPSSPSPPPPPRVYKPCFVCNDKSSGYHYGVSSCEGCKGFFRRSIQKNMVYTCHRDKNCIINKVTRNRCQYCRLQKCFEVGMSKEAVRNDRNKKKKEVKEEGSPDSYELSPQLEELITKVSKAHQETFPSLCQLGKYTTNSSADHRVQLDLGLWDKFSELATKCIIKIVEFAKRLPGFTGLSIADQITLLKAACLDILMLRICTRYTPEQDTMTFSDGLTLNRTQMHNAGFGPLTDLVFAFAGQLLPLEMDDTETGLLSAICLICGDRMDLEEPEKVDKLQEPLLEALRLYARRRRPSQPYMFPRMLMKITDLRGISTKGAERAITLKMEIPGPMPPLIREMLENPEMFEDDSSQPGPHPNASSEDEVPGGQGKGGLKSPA

[23] = target: Retinoic acid receptor alpha (Homo sapiens, UniProt P10276); test: Activation of Gal-DBD and NHRLBD fused RARalpha (unknown origin) transfected in African green monkey CV-1 cells by luciferase reporter assay; type: cell-based
Sequence of Retinoic acid receptor alpha (P10276 whole entry, the tested form may be a part): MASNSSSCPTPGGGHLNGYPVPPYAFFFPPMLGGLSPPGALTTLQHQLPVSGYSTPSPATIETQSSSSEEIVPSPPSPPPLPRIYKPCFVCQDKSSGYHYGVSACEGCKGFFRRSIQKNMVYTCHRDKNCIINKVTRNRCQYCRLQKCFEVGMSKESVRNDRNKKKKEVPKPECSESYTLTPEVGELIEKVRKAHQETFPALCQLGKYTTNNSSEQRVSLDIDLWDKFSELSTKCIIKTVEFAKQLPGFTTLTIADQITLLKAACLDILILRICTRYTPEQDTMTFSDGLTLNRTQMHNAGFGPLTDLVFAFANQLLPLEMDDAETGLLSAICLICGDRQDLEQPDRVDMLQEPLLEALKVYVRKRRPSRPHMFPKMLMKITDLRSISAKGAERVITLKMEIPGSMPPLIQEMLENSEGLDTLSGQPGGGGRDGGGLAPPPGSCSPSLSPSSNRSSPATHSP

[24] = Metabolic stability in mouse liver microsomes assessed as parent compound remaining incubated for 1 hr by LC-MS analysis; type: ADME, Microsome; settings: read-out: Stability
Mus musculus [25] = test: Anti-NASH activity in western diet and CCl4-induced nonalcoholic steatohepatitis C57BL/6 mouse assessed as alleviation of hepatic steatosis at 20 mg/kg, po administered for 12 weeks starting from week 8 and change in dose for every 5 days; type: functional, organism-based; settings: time 4.0 weeks
Mus musculus [26] = test: Anti-NASH activity in western diet and CCl4-induced nonalcoholic steatohepatitis C57BL/6 mouse assessed as alleviation of lobular inflammation at 20 mg/kg, po administered for 12 weeks starting from week 8 and change in dose for every 5 days; type: functional, organism-based; settings: time 4.0 weeks

Sequence of Oxysterols receptor LXR-beta (P55055 whole entry, the tested form may be a part): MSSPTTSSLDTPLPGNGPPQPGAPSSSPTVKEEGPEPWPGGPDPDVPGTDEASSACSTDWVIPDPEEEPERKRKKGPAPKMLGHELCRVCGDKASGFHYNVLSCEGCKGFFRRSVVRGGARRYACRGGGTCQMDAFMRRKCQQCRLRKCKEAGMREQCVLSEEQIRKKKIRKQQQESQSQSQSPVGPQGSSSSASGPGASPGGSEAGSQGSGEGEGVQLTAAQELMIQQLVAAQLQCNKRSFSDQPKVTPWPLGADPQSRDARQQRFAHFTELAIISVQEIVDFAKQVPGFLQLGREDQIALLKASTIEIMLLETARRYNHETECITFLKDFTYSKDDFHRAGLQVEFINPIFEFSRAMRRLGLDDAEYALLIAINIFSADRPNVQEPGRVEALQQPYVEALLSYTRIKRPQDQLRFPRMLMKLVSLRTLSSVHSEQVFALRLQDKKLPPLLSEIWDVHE

Compound: CCc1c(-c2ccccc2)c(-c2ccccc2)nn1-c1ccccc1-c1cccc(OCC(=O)O)c1
- EC50 [1]: > 10 µM
- EC50 [2]: > 10 µM
- EC50 (Bile acid receptor [3]): > 10 µM
- EC50 [4]: > 10 µM
- IC50 [5]: > 10 µM
- IC50 [6]: > 10 µM
- IC50 [7]: 4 µM
- EC50 (Bile acid receptor [8]): > 10 µM
- inhibition [9]: 72.7%
- IC50 [10]: > 10 µM

Compound: O=C(O)Cc1ccc(-c2ccc(OCc3c(-c4c(Cl)cccc4Cl)noc3C3CC3)cc2)cc1
- EC50 [1]: > 10 µM
- EC50 [11]: > 10 µM
- concentration at 120 h [12]: 718 ng/g
- IC50 [13]: > 30 µM
- EC50 [4]: > 10 µM
- EC50 [14]: > 10 µM
- remaining at 1 h [15]: 69.1%
- remaining at 1 h [16]: 83.6%
- EC50 (Progesterone receptor): > 10 µM
- remaining at 1 h [17]: 64.5%
- IC50 [18]: 5.6 µM
- EC50 (Androgen receptor): > 10 µM
- concentration at 120 h [19]: 2530 ng/mL
- remaining at 1 h [20]: 86.8%
- IC50 [7]: 2.9 µM
- concentration at 120 h [21]: 158 ng/g
- EC50 [22]: > 10 µM
- EC50 [23]: > 10 µM
- remaining at 1 h [24]: 74.3%

Compound: CC[C@H]1[C@@H](O)[C@@H]2[C@H](CC[C@]3(C)[C@@H]([C@H](C)CCC(=O)O)CC[C@@H]23)[C@@]2(C)CC[C@@H](O)C[C@@H]12
- Activity (Mus musculus [25]): Active
- Activity (Mus musculus [26]): Active

Compound: O=C(O)CCc1cccc(-c2ccc(OCc3c(-c4c(Cl)cccc4Cl)noc3C3CC3)cc2)c1
- IC50 [7]: 3.3 µM

Compound: CC(C)(C(=O)O)c1cccc(-c2ccc(OCc3c(-c4c(Cl)cccc4Cl)noc3C3CC3)cc2)c1
- EC50 (Bile acid receptor [3]): 0.811 µM
- IC50 [7]: 1.5 µM
- inhibition [9]: 85.8%

Compound: CC(C)(Oc1ccc(-c2ccc(OCc3c(-c4c(Cl)cccc4Cl)noc3C3CC3)cc2)cc1)C(=O)O
- IC50 [7]: 5.7 µM

Compound: O=C(O)Cc1cccc(N2CCC(OCc3c(-c4c(Cl)cccc4Cl)noc3C3CC3)CC2)c1
- EC50 (Bile acid receptor [3]): > 10 µM

Compound: CC(C)c1onc(-c2c(Cl)cccc2Cl)c1COc1ccc(/C=C/c2cccc(C(=O)O)c2)c(Cl)c1
- IC50 [7]: 15.3 µM
- inhibition [9]: 35.2%

Compound: O=C(O)COc1ccc(-c2ccc(OCc3c(-c4c(Cl)cccc4Cl)noc3C3CC3)cc2)cc1
- remaining at 1 h [20]: 68.3%
- IC50 [7]: 4.2 µM
- remaining at 1 h [24]: 56.8%

Compound: O=C(O)Cc1ccc(-c2ccc(OCc3c(-c4c(Cl)cccc4Cl)noc3C3CC3)cc2Cl)cc1
- IC50 [7]: 4.3 µM

Compound: O=C(O)COc1cccc(-c2ccc(OCc3c(-c4c(Cl)cccc4Cl)noc3C3CC3)cc2)c1
- EC50 (Bile acid receptor [3]): 0.26 µM
- IC50 [7]: 3.8 µM
- EC50 (Bile acid receptor [8]): 1.85 µM
- inhibition [9]: 67.1%

Compound: O=C(O)C1(c2cccc(-c3cccc(OCc4c(-c5c(Cl)cccc5Cl)noc4C4CC4)c3)c2)CC1
- EC50 (Bile acid receptor [3]): > 10 µM

Compound: O=C(O)CCc1ccc(-c2ccc(OCc3c(-c4c(Cl)cccc4Cl)noc3C3CC3)cc2)cc1
- remaining at 1 h [20]: 26.1%
- IC50 [7]: 1.4 µM
- remaining at 1 h [24]: 19.7%

Compound: CC(Oc1ccc(-c2ccc(OCc3c(-c4c(Cl)cccc4Cl)noc3C3CC3)cc2)cc1)C(=O)O (centres undefined)
- EC50 (Bile acid receptor [3]): 0.32 µM
- IC50 [7]: 3.6 µM
- EC50 (Bile acid receptor [8]): 3.51 µM
- inhibition [9]: 69.4%

Compound: O=C(O)Cc1ccc(-c2cccc(OCc3c(-c4c(Cl)cccc4Cl)noc3C3CC3)c2)cc1
- EC50 (Bile acid receptor [3]): > 10 µM
- inhibition [9]: 9.5%

Compound: CC(C)c1onc(-c2c(Cl)cccc2Cl)c1COc1ccc(-c2cccc(C3(C(=O)O)CC3)c2)cc1
- remaining at 1 h [20]: 41.1%
- remaining at 1 h [24]: 35.6%

From ChEMBL document CHEMBL5338751, “Discovery of the First-in-Class Intestinal Restricted FXR and FABP1 Dual Modulator ZLY28 for the Treatment of Nonalcoholic Fatty Liver Disease” (J Med Chem, 2023)
